In brackets after ≈: the same amount, converted by molar mass. Several values for one entry are separate records, joined by “and”; a condition that tells them apart may be missing. Equal values may be shown once. Read-outs that look alike come from different tables or passages of the source.
Key:
M. tuberculosis = test system: M. tuberculosis; parameters: method as in PMID 19299584, PMID 24500695; conditions: antimycobacterial activity; cited from earlier work
Vero cells = assay: Cytotoxicity assay in Vero cells (MTT); type: cell-based; conditions: for IC50: Chlorocebus sabaeus, Vero cells, 48 h, read-out: IC50 (Vero)
M. tuberculosis H37Rv = assay: MIC against replicating M. tuberculosis H37Rv, microplate Alamar blue assay (MABA); type: cell-based; conditions: Mycobacterium tuberculosis, H37RV
[1] = Cytotoxicity assay in HepG2 cells (MTT); conditions: human
[2] = Hepatocyte stability assay, human; conditions: human hepatocytes
[3] = test system: M. tuberculosis (H37Rv) in infected mouse J774A.1 macrophages; type: cell-based
[4] = Hepatocyte stability assay, mouse; conditions: male, mouse hepatocytes
Mt-DprE1 = Mt-DprE1 (Mycobacterium tuberculosis, UniProt P9WJF1); type: biochemical, M. tuberculosis
Sequence of Mt-DprE1 (P9WJF1 whole entry, looked up): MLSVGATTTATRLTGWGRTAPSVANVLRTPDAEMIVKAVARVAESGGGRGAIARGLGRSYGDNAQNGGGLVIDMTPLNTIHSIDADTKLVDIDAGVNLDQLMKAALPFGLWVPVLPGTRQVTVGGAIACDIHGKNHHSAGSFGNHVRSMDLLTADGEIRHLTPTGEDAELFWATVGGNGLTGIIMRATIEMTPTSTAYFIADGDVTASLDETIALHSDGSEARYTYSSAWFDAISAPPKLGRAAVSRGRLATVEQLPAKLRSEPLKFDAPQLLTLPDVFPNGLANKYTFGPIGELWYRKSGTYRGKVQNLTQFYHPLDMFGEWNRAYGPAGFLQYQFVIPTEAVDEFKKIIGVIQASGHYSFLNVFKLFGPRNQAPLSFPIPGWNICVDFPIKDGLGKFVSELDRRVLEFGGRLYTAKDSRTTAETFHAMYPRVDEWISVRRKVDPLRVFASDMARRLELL

hERG K+ channel = hERG K+ channel (Homo sapiens, UniProt Q12809); assay: Inhibition of the hERG K+ channel, electrophysiology
Sequence of hERG K+ channel (Q12809 whole entry): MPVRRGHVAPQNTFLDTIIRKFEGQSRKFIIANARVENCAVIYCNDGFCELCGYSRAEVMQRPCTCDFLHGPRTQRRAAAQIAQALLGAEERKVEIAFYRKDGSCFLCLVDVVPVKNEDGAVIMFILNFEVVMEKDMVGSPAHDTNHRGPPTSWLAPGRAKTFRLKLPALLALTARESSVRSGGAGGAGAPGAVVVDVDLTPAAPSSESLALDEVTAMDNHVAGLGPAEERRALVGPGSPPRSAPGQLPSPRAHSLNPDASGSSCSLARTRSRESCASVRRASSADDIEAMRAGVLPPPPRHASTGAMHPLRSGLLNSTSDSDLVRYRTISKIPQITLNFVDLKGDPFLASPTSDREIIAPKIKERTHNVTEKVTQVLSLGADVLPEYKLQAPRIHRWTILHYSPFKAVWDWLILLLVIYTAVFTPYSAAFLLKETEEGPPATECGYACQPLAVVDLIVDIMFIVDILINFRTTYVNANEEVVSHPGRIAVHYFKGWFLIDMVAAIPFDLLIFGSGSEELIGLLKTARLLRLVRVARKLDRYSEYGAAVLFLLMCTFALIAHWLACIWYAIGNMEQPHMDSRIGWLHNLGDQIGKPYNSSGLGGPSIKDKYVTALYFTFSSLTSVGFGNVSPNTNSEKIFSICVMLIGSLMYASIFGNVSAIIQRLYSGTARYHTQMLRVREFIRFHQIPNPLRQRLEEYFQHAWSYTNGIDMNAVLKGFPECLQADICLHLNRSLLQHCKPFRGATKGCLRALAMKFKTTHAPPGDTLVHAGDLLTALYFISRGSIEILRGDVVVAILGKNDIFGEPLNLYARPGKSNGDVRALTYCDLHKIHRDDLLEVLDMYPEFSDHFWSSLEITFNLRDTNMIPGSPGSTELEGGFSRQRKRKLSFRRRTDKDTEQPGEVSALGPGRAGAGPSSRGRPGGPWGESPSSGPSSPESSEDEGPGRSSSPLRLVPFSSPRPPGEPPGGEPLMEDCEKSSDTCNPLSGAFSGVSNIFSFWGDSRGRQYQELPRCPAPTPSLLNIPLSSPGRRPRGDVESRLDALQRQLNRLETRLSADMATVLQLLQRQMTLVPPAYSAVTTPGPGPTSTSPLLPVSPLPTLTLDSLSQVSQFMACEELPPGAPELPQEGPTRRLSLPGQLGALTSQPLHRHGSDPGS

[5] = against M. tuberculosis H37Rv, Tables 1-3, read-out: MIC
[6] = supplementary CSV, same values as Tables 1-3, read-out: Minimal inhibit concentration

Row | SMILES | MICs (M. tuberculosis) | SI (Vero cells) | IC50 (Vero cells) | melting point | MIC (M. tuberculosis H37Rv; [5]) | MIC (M. tuberculosis H37Rv; [6]) | IC50 at 48 h [1] | half-life at 1 µM [2] | remaining at 0.5 h, 1 µM [2] | log10 CFU/macrophages [3] | Δlog10 CFU [3] | half-life at 1 µM [4] | remaining at 0.5 h, 1 µM [4] | IC50 DprE1 (Mt-DprE1) | IC50 (hERG K+ channel)
1 | C[C@H]1COC2(CCN(c3nc(=O)c4cc(C(F)(F)F)cc([N+](=O)[O-])c4s3)CC2)O1 [BTZ043] | < 0.016 µg/mL | – | – | – | – | – | – | – | – | – | – | – | – | – | –
2 | CCOC(=O)NC(=O)c1ccsc1NC(=O)c1ccc(C(=O)N2CCC2)cc1 [Compound 23h, Ethyl (2-(4-(Azetidine-1-carbonyl)benzamido)thiophene-3-carbonyl)carbamate] | – | >76 | > 64 µg/mL | 182 to 183 °C | 0.84 µg/mL (≈ 2.09 µM) | 0.84 µg/mL (≈ 2.09 µM) | – | – | – | – | – | – | – | – | –
3 | CCOC(=O)NC(=O)c1ccsc1NC(=O)c1ccc(C(=O)N2CCCCC2)cc1 [Compound 23j, Ethyl (2-(4-(Piperidine-1-carbonyl)benzamido)thiophene-3-carbonyl)carbamate] | – | – | > 64 µg/mL | – | 0.02 µg/mL (≈ 0.0466 µM) | 0.02 µg/mL (≈ 0.0466 µM) | > 64 µg/mL | 50.8 min | 66.4% | 4.45 ± 0.03 log10 CFU and 4.54 ± 0.01 log10 CFU | 1.07 log10 CFU and 0.98 log10 CFU | 56.4 min | 69.1% | 0.3 ± 0.1 µg/mL (≈ 0.698 µM) | 23.7 µM
4 | CCOC(=O)NC(=O)c1ccsc1NC(=O)c1ccc(C(=O)N2CCC(OC)CC2)cc1 [Compound 23m, Ethyl (2-(4-(4-Methoxypiperidine-1-carbonyl)benzamido)thiophene-3-carbonyl)carbamate] | – | >533 | > 64 µg/mL | 160 to 161 °C | 0.12 µg/mL (≈ 0.261 µM) | 0.12 µg/mL (≈ 0.261 µM) | – | – | – | – | – | – | – | – | –
5 | CCOC(=O)NC(=O)c1ccsc1NC(=O)c1ccc(C(=O)N2CCSCC2)cc1 [Compound 23p, Ethyl (2-(4-(Thiomorpholine-4-carbonyl)benzamido)thiophene-3-carbonyl)carbamate] | – | 159 | 52.3 µg/mL (≈ 117 µM) | 178 to 179 °C | 0.33 µg/mL (≈ 0.737 µM) | 0.33 µg/mL (≈ 0.737 µM) | – | – | – | – | – | – | – | – | –
6 | CCOC(=O)NC(=O)c1ccsc1NC(=O)c1ccc(C(=O)N2CCCCC2)cc1Cl [Compound 24c, Ethyl (2-(2-Chloro-4-(piperidine-1-carbonyl)benzamido)thiophene-3-carbonyl)carbamate] | – | >142 | > 64 µg/mL | 59 to 60 °C | 0.45 µg/mL (≈ 0.97 µM) | 0.45 µg/mL (≈ 0.97 µM) | – | – | – | – | – | – | – | – | –
7 | CCOC(=O)NC(=O)c1ccsc1NC(=O)c1ccc(C(=O)N2CCCCC2)cc1Br [Compound 24d, Ethyl (2-(2-Bromo-4-(piperidine-1-carbonyl)benzamido)thiophene-3-carbonyl)carbamate] | – | >131 | > 64 µg/mL | 144 to 145 °C | 0.49 µg/mL (≈ 0.964 µM) | 0.49 µg/mL (≈ 0.964 µM) | – | – | – | – | – | – | – | – | –
8 | CCOC(=O)NC(=O)c1ccsc1NC(=O)c1ccc(C(=O)N2CCCCC2)cc1[N+](=O)[O-] [Compound 24e, Ethyl (2-(2-Nitro-4-(piperidine-1-carbonyl)benzamido)thiophene-3-carbonyl)carbamate] | – | >34 | > 64 µg/mL | 113 to 114 °C | 1.86 µg/mL (≈ 3.92 µM) | 1.86 µg/mL (≈ 3.92 µM) | – | – | – | – | – | – | – | – | –

— publication PMC8154581, “Discovery of Novel Thiophene-arylamide Derivatives as DprE1 Inhibitors with Potent Antimycobacterial Activities” (Journal of Medicinal Chemistry, 2021)
